From US10696686B2, “Herbicidally active (alkynyl-phenyl)-substituted cyclic dione compounds and derivatives thereof” (Syngenta Limited, priority 2013, dated 2020)

How the values were obtained:
Experiment in all cases: Biological Example 1B glasshouse assay, pre-emergence application
Assay type in all cases: in vivo
Details in all cases: 250 g/ha, 13 days after application
[1] = system: Setaria faberi (SETFA)
Method in brief: (§1)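 Sow in sand/sandy loam; grow 1 d (pre-emergence) or 8 d (post-emergence) at 24/16 °C, 14 h light, 65% humidity; spray aqueous dilution of acetone/water (50:50) formulation with 0.5% Tween 20; water twice daily; rate damage visually after 13 days.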

[2] = system: Echinochloa crus-galli (ECHCG)
Method in brief: as §1

[3] = system: Abutilon theophrasti (ABUTH)
Method in brief: as §1

[4] = system: Alopecurus myosuroides (ALOMY)
Method in brief: as §1

[5] = system: Amaranthus retroflexus (AMARE)
Method in brief: as §1

C#CCC1CC(=O)C(c2c(F)cc(C#CC)cc2OC)C1=O (centres unmarked) [Compound A8, 2-(2-fluoro-6-methoxy-4-prop-1-ynyl-phenyl)-4-prop-2-ynyl-cyclopentane-1,3-dione]
Percentage phytotoxicity SETFA [1]: 90%
Percentage phytotoxicity ECHCG [2]: 100%
Percentage phytotoxicity ABUTH [3]: 0%
Percentage phytotoxicity ALOMY [4]: 90%
Percentage phytotoxicity AMARE [5]: 0%
